Results reported in PubChem BioAssay (NCI).
Values joined by “and” are separate entries in the source; they are usually repeats but may differ in a detail not shown here. Equal entries are not always repeated.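 Grown in 96-well plates, cells were treated for 48 hours with each compound at five concentrations. Insufficient inhibition: endpoint recorded as highest concentration tested. The concentration for 50% growth inhibition is given as GI50. TGI marks complete inhibition of growth.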

Columns and labels:
Assay in all cases: DTP human tumour cell line panel, 48 h
[1] = system: SK-MEL-2 melanoma
[2] = system: MALME-3M melanoma
[3] = system: SK-MEL-5 melanoma
[4] = system: U251 CNS
[5] = system: SNB-75 CNS
[6] = system: BT-549 breast
[7] = system: RXF 393 renal
[8] = system: A498 renal

## N[C@@H](Cc1c[nH]c2ccccc12)C(=O)NC1CCN(Cc2c[nH]c3ccc(Cl)cc23)CC1
[1]
  GI50: 16.6 µM
  TGI: 31.8 µM
[2]
  GI50: 1.86 µM
  TGI: 3.98 µM
[3]
  GI50: 13.1 µM
  TGI: 25.9 µM
[4]
  GI50: 10.6 µM
  TGI: 22.7 µM
[5]
  GI50: 11.6 µM
  TGI: 29.1 µM
[6]
  GI50: 16 µM
  TGI: 34.4 µM

## C#Cc1cccc(Nc2nc(C)nc3cc(NC(=O)CCl)ccc23)c1
[1]
  GI50: 3.9 µM
  TGI: 7.9 µM
[2]
  GI50: 0.465 µM
  TGI: 1.11 µM
[7]
  GI50: 3.28 µM
  TGI: 6.86 µM
[3]
  GI50: 3.56 µM
  TGI: 7.04 µM
[4]
  GI50: 0.641 µM
  TGI: 1.7 µM
[5]
  GI50: 1.09 µM
  TGI: 4.34 µM
[8]
  GI50: 3.65 µM
  TGI: 7.64 µM
[6]
  GI50: 1.32 µM
  TGI: 5.31 µM

## CC(C)(C)c1cc[n+](C[n+]2ccc(C(C)(C)C)cc2)cc1
[1]
  TGI: > 100 µM
[2]
  TGI: > 100 µM
[7]
  TGI: > 100 µM
[3]
  TGI: > 100 µM
[4]
  TGI: > 100 µM
[5]
  TGI: > 100 µM
[8]
  TGI: > 100 µM

## COc1ccc(NC(=O)c2ccc(C(F)(F)F)nc2Nc2ccc(Cl)cc2C)cc1Cl
[1]
  GI50: 7.33 µM
  TGI: 21 µM
[2]
  GI50: 15.7 µM
  TGI: 40.1 µM
[7]
  GI50: 12.5 µM
  TGI: 26.8 µM
[3]
  GI50: 4.09 µM
  TGI: 18.7 µM
[4]
  GI50: 4.23 µM
  TGI: 14.9 µM
[5]
  GI50: 6.47 µM
  TGI: 23.9 µM
[8]
  GI50: 5.02 µM
  TGI: 17.5 µM
[6]
  GI50: 4.88 µM
  TGI: 18.6 µM

## NC(=O)c1ccc(I)c([N+](=O)[O-])c1
[1]
  GI50: > 100 µM
  TGI: > 100 µM
[2]
  GI50: 41 µM
  TGI: > 72.9 µM
[7]
  GI50: > 84.8 µM
  TGI: > 100 µM
[3]
  GI50: > 100 µM
  TGI: > 100 µM
[4]
  GI50: 45.3 µM
  TGI: > 100 µM
[5]
  GI50: > 100 µM
  TGI: > 100 µM
[8]
  GI50: > 78.7 µM
  TGI: > 100 µM
[6]
  GI50: > 100 µM
  TGI: > 100 µM

## COc1ccc2c(c1)C(=O)/C(=C/c1ccc(O)cc1)O2
[2]
  GI50: 5.47 µM
  TGI: 13.2 µM
[7]
  GI50: 11 µM
  TGI: 26 µM
[3]
  GI50: 15.4 µM
  TGI: 30.5 µM
[4]
  GI50: 14.1 µM
  TGI: 27.2 µM
[5]
  GI50: 8.82 µM
  TGI: > 32.3 µM
[8]
  GI50: 23.2 µM
  TGI: 49.3 µM
[6]
  GI50: 12.7 µM
  TGI: 29.8 µM

## CC[C@H](C)[C@H](NC(=O)c1ncccn1)C(=O)N(C)[C@H](C[C@@H](OC(C)=O)c1nc(C(=O)N[C@@H](Cc2ccccc2)C[C@H](C)C(=O)OC)cs1)C(C)C
[2]
  GI50: 1.29 µM
  TGI: > 25 µM
[7]
  GI50: 0.809 µM
  TGI: 20.6 µM
[3]
  GI50: 0.848 µM
  TGI: 4.77 µM
[4]
  GI50: 2.39 µM
  TGI: > 25 µM
[5]
  GI50: 0.768 µM
  TGI: > 25 µM
[8]
  GI50: 2.7 µM
  TGI: 17.6 µM
[6]
  GI50: 1.47 µM
  TGI: 11.7 µM

## C/C(COc1ccc2oc(-c3ccccc3)cc(=O)c2c1)=N\O
[1]
  GI50: > 100 µM
  TGI: > 100 µM
[7]
  GI50: > 100 µM
  TGI: > 100 µM
[4]
  GI50: 14.4 µM
  TGI: 37.2 µM
[5]
  GI50: > 100 µM
  TGI: > 100 µM

## O=C1CC=C2C3CC4N(CCC45c4ccccc4N1C25)C/C3=C\CO (stereo not drawn)
[1]
  TGI: > 100 µM
[2]
  TGI: > 100 µM
[3]
  TGI: > 100 µM
[4]
  TGI: > 100 µM
[5]
  TGI: > 100 µM
[8]
  TGI: > 100 µM
[6]
  TGI: > 100 µM

## COC(=O)[C@@H](C)C[C@H](Cc1ccc(F)cc1)NC(=O)c1csc([C@@H](C[C@H](C(C)C)N(C)C(=O)[C@@H](NC(=O)[C@H]2CCCCN2C)C2CC2)OC(C)=O)n1
[1]
  GI50: 0.169 µM
  TGI: > 25 µM
[2]
  GI50: 0.569 µM
  TGI: > 25 µM
[3]
  GI50: 0.0957 µM
  TGI: 1.46 µM
[4]
  GI50: 0.293 µM
  TGI: > 25 µM
[5]
  GI50: 0.174 µM
  TGI: > 25 µM
[8]
  GI50: 0.598 µM
  TGI: 6.87 µM
[6]
  GI50: 0.188 µM
  TGI: 3.72 µM

## COC(=O)[C@@H](C)C[C@H](Cc1ccccc1)NC(=O)c1csc([C@@H](C[C@H](C(C)C)N(C)C(=O)[C@@H](NC(=O)[C@H]2CCCCN2C)c2ccc(F)cc2)OC(C)=O)n1
[1]
  GI50: 0.00682 µM and 0.0293 µM
  TGI: > 100 µM
[3]
  GI50: 0.00535 µM and 0.0025 µM and 0.0101 µM
[4]
  TGI: 25 µM and > 100 µM
[5]
  TGI: 17.6 µM and 61.3 µM
[8]
  GI50: 0.0216 µM and 0.127 µM
  TGI: > 100 µM
[6]
  TGI: 0.0853 µM and 0.661 µM

## C[C@]12CC[C@@H]3c4ccc(O)cc4CC[C@H]3[C@@H]1CC(Cc1ccccc1)(Cc1ccccc1)C2=O
[1]
  GI50: 24.8 µM
  TGI: 53.6 µM
[2]
  GI50: 23.5 µM
  TGI: 48.9 µM
[3]
  GI50: 17.9 µM
  TGI: 31.8 µM
[4]
  GI50: 16 µM
  TGI: 31.8 µM
[5]
  GI50: 16.7 µM
  TGI: 34.5 µM
[8]
  GI50: 21.3 µM
  TGI: 36.5 µM
[6]
  GI50: 18.8 µM
  TGI: 38.7 µM

## O=C1/C(=C/c2ccc(Cl)cc2)N=C(c2ccccc2)N1c1cc(C(F)(F)F)ccc1Cl
[1]
  GI50: 17.5 µM
  TGI: 45.4 µM
[2]
  GI50: 27.7 µM
  TGI: 86.5 µM
[7]
  GI50: 27.5 µM
  TGI: > 100 µM
[3]
  GI50: 16 µM
  TGI: 29.5 µM
[4]
  GI50: 22.5 µM
  TGI: > 100 µM
[5]
  GI50: 18.6 µM
  TGI: 78.7 µM
[8]
  GI50: 36.7 µM
  TGI: > 100 µM

## COc1nc2c(c(=O)n1C)CN(c1ccccc1)C(=O)CN2C
[1]
  GI50: > 100 µM
  TGI: > 100 µM
[2]
  GI50: 46.7 µM
  TGI: > 100 µM
[7]
  GI50: 54.3 µM
  TGI: > 100 µM
[3]
  GI50: 26.9 µM
  TGI: > 100 µM
[4]
  GI50: 78.9 µM
  TGI: > 100 µM
[5]
  GI50: 48.9 µM
  TGI: > 100 µM
[6]
  GI50: 33.2 µM
  TGI: > 100 µM

## CCCCSC1CCSc2c1ccc1ccccc21 (stereo not drawn)
[1]
  TGI: > 100 µM
[2]
  TGI: 46.9 µM
[7]
  TGI: > 100 µM
[3]
  TGI: > 100 µM
[4]
  TGI: > 100 µM

## Cc1cc2[nH]c(=O)c3c4ncccc4cn3c2cc1C
[1]
  GI50: 5.69 µM
  TGI: 40.3 µM
[4]
  GI50: 2.67 µM
  TGI: 9.18 µM
[5]
  GI50: 3.3 µM
  TGI: 15.7 µM
[8]
  GI50: 9.38 µM
  TGI: 84.5 µM
[6]
  GI50: 14.5 µM
  TGI: 41.4 µM

## CC1(C)CC[C@]2(C(=O)NCCNCCN)CC[C@]3(C)C(=CC[C@@H]4[C@@]5(C)CCC(=O)C(C)(C)[C@@H]5CC[C@]43C)[C@@H]2C1
[1]
  GI50: 1.94 µM
  TGI: 4.05 µM
[2]
  GI50: 1.83 µM
  TGI: 3.43 µM
[7]
  GI50: 1.57 µM
  TGI: 2.93 µM
[3]
  GI50: 1.8 µM
  TGI: 3.22 µM
[4]
  GI50: 1.79 µM
  TGI: 3.46 µM
[8]
  GI50: 8.01 µM
  TGI: 23.6 µM
[6]
  GI50: 1.56 µM
  TGI: 3.26 µM
